# Laboratory results taken from patent US6017511A, “Glycopeptide-chelator conjugates” (Resolution Pharmaceuticals Inc., priority 1997, dated 2000).
# Assays:
# S. aureus (ATCC 25923) = assay: Filter binding assay of Tc-99m-labelled conjugates; conditions: Tc-99m-labelled conjugate, 37° C.
# Method: S. aureus (ATCC 25923)→TSB
# (§6) The cultures are then subcultured by removing 50-150 mL of the culture (O.D. dependent) and transferring to a 50 mL culture flask containing 20 mL broth. The subcultures are incubated at 37° C. or 30° C. until a growth concentration of 10^8 cfu (colony forming unit)/mL is reached. The concentration of each microorganism is determined by reading the optical density (O.D.) of the subculture using a spectrophotometer. The correlation between O.D. and growth of each microorganism has been previously established.
# (§7) The flasks are incubated in a shaking water bath (200 rpm) at 37° C. […] There is also a background which is a flask containing broth with no microorganism and to which the radioactivity is also added. […] The filters are then assayed for radioactivity using a gamma well counter (Cobra II; Canberra Packard). […]
# E. coli (ATCC 25922) = assay: Filter binding assay of Tc-99m-labelled conjugates; conditions: Tc-99m-labelled conjugate, 37° C.
# Method: E. coli (ATCC 25922)→Tryptic Soy Broth (TSB; Difco)
# as §6, §7
# C. albicans (ATCC 14053) = assay: Filter binding assay of Tc-99m-labelled conjugates; conditions: Tc-99m-labelled conjugate
# Method: (§8) *Note: C. albicans has a longer growth cycle than the other microorganisms and, therefore, the culture is incubated for 2 days. Also, the optimum growth temperature for C. albicans is 30° C.
# C. albicans (ATCC 14053)→YM Broth (YMB; Difco)
# The cultures are then subcultured by removing 50-150 mL of the culture (O.D. dependent) and transferring to a 50 mL culture flask containing 20 mL broth. […] The concentration of each microorganism is determined by reading the optical density (O.D.) of the subculture using a spectrophotometer.
# as §7
# [1] = system: P. aeruginosa (ATCC PAO-PR1); assay: Filter binding assay of Tc-99m-labelled conjugates; conditions: Tc-99m-labelled conjugate, 37° C.
# Method: Frozen cultures of bacteria are stored in vials at -80° C. until use. To inoculate a fresh bacterial culture, the vial of bacteria is removed from the freezer and continually kept frozen by being placed on dry ice. A small amount is removed using a sterile wooden applicator and transferred to a 50 mL culture flask, with screw cap, containing 10 mL of broth medium. The culture is incubated at 37° C. on a shaker at 200 rpm overnight*. The various microorganisms or compounds and broth media used are:
# P. aeruginosa (ATCC PAO-PR1)→TSB
# The cultures are then subcultured by removing […] of the culture (O.D. dependent) and transferring to a 50 mL culture flask containing 20 mL broth. The subcultures are incubated at 37° C. or 30° C. until a growth concentration of 10^8 cfu (colony forming unit)/mL is reached. The concentration of each microorganism is determined by reading the optical density (O.D.) of the subculture using a spectrophotometer. […]
# Once the proper O.D. has been reached, 10 mL of the subculture is transferred to a 15 mL culture flask and 1×10^6 cpm of Tc-99m-labelled compound is added. […] There is also a background which is a flask containing broth with no microorganism and to which the radioactivity is also added. […] The filters are then assayed for radioactivity using a gamma well counter (Cobra II; Canberra Packard). […]
# [2] = Filter binding assay of Tc-99m-labelled conjugates; conditions: Tc-99m-labelled conjugate, zymosan suspension 50 mg/mL
# Method: as §8
# The flasks are incubated in a shaking water bath (200 rpm) at 37° C. A 10 mL zymosan suspension at 50 mg/mL and a 0.5% carrageenan mixture are also made. There is also a background which is a flask containing broth with no microorganism and to which the radioactivity is also added. At various time intervals, 200 mL of the cultures, suspensions, and the background is removed and filtered through 25 mm diam., 22 mm, cellulose acetate/nitrate, membrane filters (Millipore) using a Millipore vacuum manifold. The filters are washed 3× with 1 mL PBS. The filters are then assayed for radioactivity using a gamma well counter (Cobra II; Canberra Packard). The time intervals at which the cultures are sampled are: […]
# S. aureus = assay: microbe, parasite or virus in culture; type: cell-based; conditions: for antimicrobial activity at the concentrations tested: S. aureus, up to 64 mg/mL
# Method: (§1) Fresh cultures of bacteria are made from frozen stock stored at -80° C. To inoculate a fresh culture, the stock is removed from the freezer and continually kept frozen by being placed on dry ice. A small amount is removed using a sterile wooden applicator and transferred to a 50 mL culture flask, with screw cap, containing 10 mL of broth medium. The culture is incubated at 37° C. on an orbital shaker at 200 rpm overnight. The various bacteria and broth media used are:
# (§2) The following day, the cultures are subcultured by transferring […] (O.D. dependent) to a new culture flask containing 20 mL broth. The subcultures are incubated at 37° C. on a shaker (200 rpm) and the bacteria are allowed to grow to mid-log phase. This is usually around 1×10^8 cfu/mL, determined by measuring the O.D. of the subculture. The correlation between O.D. and growth of each bacteria has been previously established.
# (§3) Once the proper O.D. has been obtained, a 200- or 400-fold dilution is made of the subculture and 1 mL of this dilution is added to 1 mL of compound or antibiotic (i.e. 2-fold dilution) to give a final concentration of 0, 2, 4, 8, 16, 32, and 64 mg/mL compound or antibiotic. A 100-fold dilution is made from the control culture (0 mg/mL) and […] samples (i.e. 1000-fold dilution) are plated onto a TSA (tryptic soy agar; Difco). The cultures are incubated overnight at 37° C. on an orbital shaker (200 rpm). The TSA plates are also incubated overnight at 37° C.
# (§4) The following day, the cultures are examined for growth or turbidity. […] samples (i.e. 10-fold dilution) of any of the cultures showing no turbidity, i.e. no growth, are plated onto TSA. The plates are incubated overnight at 37° C. and the number of cfu, if any, are counted. The control TSA plates are counted for the number of cfu for comparison with the culture plates.
# (§5) MIC (minimal inhibitory concentration) is determined to be the lowest concentration at which growth of the bacteria is arrested. MBC (minimal bactericidal concentration) is determined to be the lowest concentration at which the bacteria are being killed.
# E. coli = assay: Antimicrobial assay; type: cell-based; conditions: up to 64 mg/mL
# Method: as §1, §2, §3, §4, §5
# P. aeruginosa = assay: Antimicrobial assay; type: cell-based; conditions: up to 64 mg/mL
# Method: as §1, §2, §3, §4, §5
Compound,"Filter Binding Assay Results at 2 h, S. aureus (S. aureus (ATCC 25923))","Filter Binding Assay Results at 2 h, E. coli (E. coli (ATCC 25922))","Filter Binding Assay Results at 2 h, C. albicans (C. albicans (ATCC 14053))","Filter Binding Assay Results at 2 h, P. aeruginosa [1]","Filter Binding Assay Results at 2 h, Zymosan [2]",MBC (minimal bactericidal concentration) (S. aureus),MIC (minimal inhibitory concentration) (S. aureus),antimicrobial activity at the concentrations tested (S. aureus),antimicrobial activity at the concentrations tested (E. coli),antimicrobial activity at the concentrations tested (P. aeruginosa),"MBC (S. aureus; Staphylococcus aureus, read-out: MBC (minimal bactericidal concentration))"
"CN[C@H](CC(C)C)C(=O)N[C@H]1C(=O)N[C@@H](CC(N)=O)C(=O)N[C@H]2C(=O)N[C@H]3C(=O)N[C@H](C(=O)N[C@H](C(=O)NCCCNC(=O)CNC(=O)C(CSCNC(C)=O)NC(=O)C(CO)NC(=O)CN(C)C)c4cc(O)cc(O)c4-c4cc3ccc4O)[C@H](O)c3ccc(c(Cl)c3)Oc3cc2cc(c3O[C@@H]2O[C@H](CO)[C@@H](O)[C@H](O)[C@H]2O[C@H]2C[C@](C)(N)[C@H](O)[C@H](C)O2)Oc2ccc(cc2Cl)[C@H]1O (stereo partly drawn) [(IA), DimethylGly-Ser-Cys(Acm)-Gly-NH(CH2)3 NH-Vancomycin]",48%,31%,21%,25%,35%,32 mg/mL,16 to 32 mg/mL,antimicrobial against only S. aureus,antimicrobial against only S. aureus,antimicrobial against only S. aureus,–
"CN[C@H](CC(C)C)C(=O)N[C@H]1C(=O)N[C@@H](CC(N)=O)C(=O)N[C@H]2C(=O)N[C@H]3C(=O)N[C@H](C(=O)N[C@H](C(=O)O)c4cc(O)cc(O)c4-c4cc3ccc4O)[C@H](O)c3ccc(c(Cl)c3)Oc3cc2cc(c3O[C@@H]2O[C@H](CO)[C@@H](O)[C@H](O)[C@H]2O[C@H]2C[C@](C)(N)[C@H](O)[C@H](C)O2)Oc2ccc(cc2Cl)[C@H]1O [Vancomycin, reference compound]",–,–,–,–,–,–,–,antimicrobial against only S. aureus,antimicrobial against only S. aureus,antimicrobial against only S. aureus,32 to 64 mg/mL
DimethylGly-Ser-Cys(Acm)-(βAla)3 -Lys(N^ε -Vancomycin)-Gly-OH [(IB)],22%,18%,5%,–,42%,–,–,–,–,–,–
